Reference: paper PMC12078333, “Pharmacokinetic evaluation and bioavailability of KPT-335 (Verdinexor) in cats” (Frontiers in Veterinary Science, 2025)
“And” between values parts separate entries of the source, which are not always exact repeats. Equal entries are not always repeated. Where two headings read alike, the source gives them in different places.

Experiment: Pharmacokinetics study of KPT-335 in cats (i.v. injection, p.o. capsules and tablets; UPLC-MS/MS, non-compartmental analysis)
Format: in vivo
Settings: for Plasma concentration: individual cats 1-6; for AUC(0-t) / Cmax: plasma
Experimental: In this study, a parallel trial design was employed, 42 adult domestic cats (21 males and 21 females), aged 1 to 2 years and weighing 2.5 ± 0.25 kg. Cats were grouped by random number, with half male and female in each group, and all cats were determined to be systemically healthy during an initial screening visit 1 week prior to the experiment. They were acclimatized to the laboratory environment for 7 days before the study commenced. During this period, they were kept in solitary cages with free access to water. Cats in the fasting group were deprived of food for 12 h prior to and 2 h following drug administration, while those in the feeding group were fed twice a day. Food and water sources were consistent throughout the trail. During and at the end of the experiment, we systematically assessed the adverse reactions by recording parameters such as body weight, behavior, and coat gloss in all test cats both before and after the trial. These observations were conducted to evaluate whether any adverse reactions occurred. All procedures were reviewed and approved by the Institutional Animal Care and Use Committee of China Agricultural University (11305-23-E-002).
The UPLC-MS/MS system utilized a UPLC 1290 (Agilent) paired with a Phenomenex Kinetex C18 column (50 mm × 2.1 mm, 2.6 μm) for separation at a flow rate of 0.3 mL/min. The chromatographic mobile phase comprised water (A) and acetonitrile (B), both containing 0.1% formic acid. The gradient elution program was as follows: from 0.5 to 2.5 min, 10 to 95% B; from 2.5 to 4.5 min, 95% B; from 4.5 to 4.6 min, 95 to 10% B; and from 4.6 to 6.0 min, 10% B. The injection volume was 2 μL.
For mass spectrometry, an Agilent 6,475-LC-TQ equipped with an electrospray ion source was used. Multiple Reaction Monitoring (MRM) was selected to quantify KPT-335 in the positive ion mode. The ion transitions monitored were m/z 443.1 → 334.0 and 443.1 → 110.1 for KPT-335, and m/z 444.1 → 334.0 for the internal standard (IS). The cone voltage and collision energy were optimized for KPT-335 and the IS individually, set at 160 V and 25 eV, respectively. The optimized parameters for the instrument included an ion source temperature of 350°C, solvent removal temperature of 320°C, capillary voltage of 3.0 kV, and a solvent gas flow rate of 300 L/h.
The method was developed based on prior research conducted in the laboratory ([16]) and validated in accordance with international guidelines ([17]). The calibration concentration range for KPT-335 spanned from 0.5 to 100 ng/mL, with a lower limit of quantification (LLOQ) set at 0.5 ng/mL. The squared correlation coefficient (R^2) values exceeded 0.999, indicating high linearity.
For sample preparation, 100 μL of plasma was mixed with 10 μL of internal standard (IS) and 900 μL of acetonitrile, followed by vortexing for 2 min. The mixture was then centrifuged at 13,400 × g at 4°C for 10 min. The supernatant was filtered through a 0.22 μm organic membrane, and the resulting sample was analyzed using UPLC-MS/MS.
Cats were divided into seven groups, with six cats in each group. In the intravenous (i.v.) group (Group 1), cats received an injection of KPT-335 at a dosage of 1 mg/kg body weight (BW), administered via a bolus through a venous infusion needle. For the oral (p.o.) administration, cats were given capsules in a fasting state at doses of 0.2 mg/kg BW (Group 2), 1 mg/kg BW (Group 3), and 2 mg/kg BW (Group 4). Additionally, tablets were administered at 1 mg/kg BW (fasting, Group 5), 1 mg/kg BW (Group 6), and 2 mg/kg BW (Group 7) in a feeding state, followed by 3 mL of water delivered with a syringe.
For the p.o. administration, blood samples of 1.5 mL were collected via the brachial cephalic vein prior to administration and at 0.167, 0.333, 0.5, 0.75, 1, 1.5, 2, 4, 6, 8, 12, 24, 32, and 48 h post-administration. […]

[1] = cats, i.v., Injection, 1 mg/kg BW
[2] = cats, p.o., Capsule, Fasting, 0.2 mg/kg BW
[3] = cats, p.o., Capsule, Fasting, 1 mg/kg BW
[4] = cats, p.o., Capsule, Fasting, 2 mg/kg BW
[5] = cats, p.o., Tablet, Fasting, 1 mg/kg BW
[6] = cats, p.o., Tablet, Feeding, 1 mg/kg BW

O=C(/C=C\n1cnc(-c2cc(C(F)(F)F)cc(C(F)(F)F)c2)n1)NNc1ccccn1 [KPT-335]
Plasma concentration (cats, i.v. 1 mg/kg BW, 1 h, 1 mg/kg, in ng/mL): 643.90 and 242.31 and 664.36 and 555.75 and 518.04 and 558.85 | Plasma concentration (cats, i.v. 1 mg/kg BW, 2 h, 1 mg/kg, in ng/mL): 490.02 and 194.67 and 604.45 and 427.47 and 433.50 and 495.92 | Plasma concentration (cats, i.v. 1 mg/kg BW, 4 h, 1 mg/kg, in ng/mL): 278.69 and 140.14 and 326.77 and 250.68 and 245.55 and 286.46 | Plasma concentration (cats, i.v. 1 mg/kg BW, 8 h, 1 mg/kg, in ng/mL): 92.64 and 60.90 and 157.56 and 64.79 and 88.37 and 110.98 | Plasma concentration (cats, i.v. 1 mg/kg BW, 12 h, 1 mg/kg, in ng/mL): 91.54 and 31.99 and 27.73 and 24.10 and 36.17 and 25.48 | Plasma concentration (cats, i.v. 1 mg/kg BW, 24 h, 1 mg/kg): 2.04 ng/mL and 1.82 ng/mL | Plasma concentration (cats, i.v. 1 mg/kg BW, 24 h, 1 mg/kg, in ng/mL): 11.88 and 15.46 and 18.84 and 11.18 | Plasma concentration (cats, i.v. 1 mg/kg BW, 32 h, 1 mg/kg): 2.52 and 2.36 and 9.45 and 1.34 and 8.61 and BLOQ | Plasma concentration (cats, i.v. 1 mg/kg BW, 48 h): BLOQ | AUC_%Extrap_obs [1]: 0.83 ± 0.69% | HL_Lambda_z [1]: 3.93 ± 0.84 h | reduction of absolute bioavailability when dosage is increased to 2 mg/kg BW (cats, p.o.): 15–25% | AUC_%Extrap_obs [2]: 7.53 ± 7.79% | HL_Lambda_z [2]: 7.04 ± 3.26 h | AUC_%Extrap_obs [3]: 0.47 ± 0.13% | HL_Lambda_z [3]: 5.37 ± 1.01 h | AUC_%Extrap_obs [4]: 0.75 ± 0.38% | HL_Lambda_z [4]: 6.78 ± 0.97 h | AUC_%Extrap_obs [5]: 0.82 ± 0.39% | HL_Lambda_z [5]: 5.76 ± 1.16 h | AUC_%Extrap_obs [6]: 0.92 ± 1.43% | HL_Lambda_z [6]: 4.20 ± 1.26 h | AUC_%Extrap_obs (cats, p.o., Tablet, Feeding, 2 mg/kg BW): 0.39 ± 0.24% | HL_Lambda_z (cats, p.o., Tablet, Feeding, 2 mg/kg BW, 2 mg/kg): 3.54 h and 3.54 ± 0.81 h | impact of feeding on the AUC (cats, tablet 1 mg/kg BW fasting vs feeding): minimal to no impact | Plasma concentration (cats, tablet p.o. 1 mg/kg BW after fasting, 48 h, 1 mg/kg): BLOQ | Plasma concentration (cats, tablet p.o. 1 mg/kg BW after feeding, 24 h, 1 mg/kg): BLOQ | Plasma concentration (cats, tablet p.o. 1 mg/kg BW after feeding, 32 h, 1 mg/kg): BLOQ | Plasma concentration (cats, tablet p.o. 1 mg/kg BW after feeding, 48 h, 1 mg/kg): BLOQ | Plasma concentration (cats, tablet p.o. 2 mg/kg BW after feeding, 32 h, 2 mg/kg): BLOQ | Plasma concentration (cats, tablet p.o. 2 mg/kg BW after feeding, 48 h): BLOQ | AUC(0-t) (female, iv, 1 mg/kg, female cats, i.v., Injection, 1 mg/kg BW, read-out: AUClast Value females): 3060 ± 193 ng·h/mL | Cmax (female, iv, 1 mg/kg, female cats, i.v., Injection, 1 mg/kg BW, read-out: Cmax Value females): 886 ± 54 ng/mL | AUC(0-t) (female, po, 0.2 mg/kg, female cats, p.o., Capsule, Fasting, 0.2 mg/kg BW, read-out: AUClast Value females): 244 ± 23.4 ng·h/mL | Cmax (female, po, 0.2 mg/kg, female cats, p.o., Capsule, Fasting, 0.2 mg/kg BW, read-out: Cmax Value females): 31.1 ± 11.2 ng/mL | AUC(0-t) (female, po, 1 mg/kg, female cats, p.o., Capsule, Fasting, 1 mg/kg BW, read-out: AUClast Value females): 1490 ± 292 ng·h/mL | Cmax (female, po, 1 mg/kg, female cats, p.o., Capsule, Fasting, 1 mg/kg BW, read-out: Cmax Value females): 284 ± 95.8 ng/mL | AUC(0-t) (female, po, 1 mg/kg, female cats, p.o., Tablet, Fasting, 1 mg/kg BW, read-out: AUClast Value females): 2480 ± 1160 ng·h/mL | Cmax (female, po, 1 mg/kg, female cats, p.o., Tablet, Fasting, 1 mg/kg BW, read-out: Cmax Value females): 220 ± 48.4 ng/mL | AUC(0-t) (female, po, 1 mg/kg, female cats, p.o., Tablet, Feeding, 1 mg/kg BW, read-out: AUClast Value females): 2660 ± 1870 ng·h/mL | Cmax (female, po, 1 mg/kg, female cats, p.o., Tablet, Feeding, 1 mg/kg BW, read-out: Cmax Value females): 467 ± 139 ng/mL | AUC(0-t) (female, po, 2 mg/kg, female cats, p.o., Capsule, Fasting, 2 mg/kg BW, read-out: AUClast Value females): 1830 ± 39.6 ng·h/mL | Cmax (female, po, 2 mg/kg, female cats, p.o., Capsule, Fasting, 2 mg/kg BW, read-out: Cmax Value females): 233 ± 52.4 ng/mL | AUC(0-t) (female, po, 2 mg/kg, female cats, p.o., Tablet, Feeding, 2 mg/kg BW, read-out: AUClast Value females): 2840 ± 1090 ng·h/mL | Cmax (female, po, 2 mg/kg, female cats, p.o., Tablet, Feeding, 2 mg/kg BW, read-out: Cmax Value females): 538 ± 150 ng/mL | AUC(0-t) (male, iv, 1 mg/kg, male cats, i.v., Injection, 1 mg/kg BW, read-out: AUClast Value males): 3290 ± 1300 ng·h/mL | Cmax (male, iv, 1 mg/kg, male cats, i.v., Injection, 1 mg/kg BW, read-out: Cmax Value males): 816 ± 443 ng/mL | AUC(0-t) (male, po, 0.2 mg/kg, male cats, p.o., Capsule, Fasting, 0.2 mg/kg BW, read-out: AUClast Value males): 312 ± 241 ng·h/mL | Cmax (male, po, 0.2 mg/kg, male cats, p.o., Capsule, Fasting, 0.2 mg/kg BW, read-out: Cmax Value males): 24.1 ± 6.3 ng/mL | AUC(0-t) (male, po, 1 mg/kg, male cats, p.o., Capsule, Fasting, 1 mg/kg BW, read-out: AUClast Value males): 1340 ± 704 ng·h/mL | Cmax (male, po, 1 mg/kg, male cats, p.o., Capsule, Fasting, 1 mg/kg BW, read-out: Cmax Value males): 237 ± 56.7 ng/mL | AUC(0-t) (male, po, 1 mg/kg, male cats, p.o., Tablet, Fasting, 1 mg/kg BW, read-out: AUClast Value males): 2340 ± 453 ng·h/mL | Cmax (male, po, 1 mg/kg, male cats, p.o., Tablet, Fasting, 1 mg/kg BW, read-out: Cmax Value males): 307 ± 183 ng/mL | AUC(0-t) (male, po, 1 mg/kg, male cats, p.o., Tablet, Feeding, 1 mg/kg BW, read-out: AUClast Value males): 1850 ± 11.1 ng·h/mL | Cmax (male, po, 1 mg/kg, male cats, p.o., Tablet, Feeding, 1 mg/kg BW, read-out: Cmax Value males): 261 ± 38.3 ng/mL | AUC(0-t) (male, po, 2 mg/kg, male cats, p.o., Capsule, Fasting, 2 mg/kg BW, read-out: AUClast Value males): 1850 ± 1290 ng·h/mL | Cmax (male, po, 2 mg/kg, male cats, p.o., Capsule, Fasting, 2 mg/kg BW, read-out: Cmax Value males): 328 ± 259 ng/mL | AUC(0-t) (male, po, 2 mg/kg, male cats, p.o., Tablet, Feeding, 2 mg/kg BW, read-out: AUClast Value males): 3160 ± 107 ng·h/mL | Cmax (male, po, 2 mg/kg, male cats, p.o., Tablet, Feeding, 2 mg/kg BW, read-out: Cmax Value males): 580 ± 56 ng/mL
